According to publication PMC10382042, “Brevetoxin versus Brevenal Modulation of Human Nav1 Channels” (Marine Drugs, 2023):
Several values for one entry are separate records, joined by “and”; a condition that tells them apart may be missing. Identical values can stand only once.

Assays:
[1] = tested on: human Nav channels (Nav1.2, Nav1.4, Nav1.5, Nav1.7); assay: in vitro; type: cell-based
Description: (§1) Functional modulation of recombinant human voltage-gated sodium (Nav) channels exposed to marine PbTx-3 and brevenal was assessed by automated patch-clamp electrophysiology. Neuronal Nav1.2 (CNS) and Nav1.7 (PNS), in addition to muscle Nav1.4 (skeletal) and Nav1.5 (cardiac) sodium channels, were patch-clamped in mammalian cells. Whole-cell currents mediated by human Nav1.4 and Nav1.7 overexpressed in CHO-K1 cells, as well as human Nav1.2 and Nav1.5 overexpressed in HEK293 cells, were recorded at room temperature. Currents were elicited by 25 ms test pulses to −20 mV from a holding potential (Vh) of −120 mV, delivered for 5 min at 0.1 Hz, after each full-bath solution exchange to allow current amplitude and kinetics to reach a steady state.
(§2) Nav currents were evoked by a 25 ms test pulse to −20 mV (Vh = −120 mV; 0.1 Hz). Extracellular drug applications were performed by exchanging the whole bath with the test compounds diluted in extracellular solution to the required concentration during constant monitoring (25 ms, −20 mV, Vh −120 mV, 0.1 Hz). The control solution included 0.1% ethanol to account for non-specific vehicle effects. For concentration–response curves (CRCs), compounds at incrementally higher concentrations were applied to the extracellular bath solution and allowed to equilibrate for 5 min. The average current amplitude from the last five test pulses at each concentration was used for analysis.
(§3) APC data were analyzed using PatchMaster (Nanion) and Igor (WaveMetrics, Portland, OR, USA) software. Nav peak and late currents measured in the presence of increasing amounts of PbTx-3 and brevenal were divided by the current in control conditions (ICtr) to generate CRCs. […]

[2] = tested on: nodose ganglion neuron Navs; settings: cited from earlier work
[3] = tested on: human Nav1.2, Nav1.4, Nav1.5, Nav1.7; assay: in vitro; type: cell-based; settings: human; all Nav subtypes, Ipeak and Ilate; read-out: pI/EC50, range over Nav currents
Description: as §1, §2, §3

| SMILES | fold enhancement of late currents mediated by Nav1.2, Nav1.4, and Nav1.5 [1] | orders of magnitude more potent than brevenal at modulating Nav currents [1] | fold increase in the mean apparent single-channel open time [2] | lower conductance (sub-conductance) levels of PbTx-3-modified nodose Navs [2] | EC50 [3] [µM] |
| --- | --- | --- | --- | --- | --- |
| C=C(CO)C[C@@H]1C[C@H](O)[C@]2(C)OC3CC4OC5C[C@]6(C)O[C@]7(C)CCC8OC9C[C@]%10(C)OC%11C(C)=CC(=O)OC%11CC%10OC9C[C@@H](C)C8OC7CC6O[C@@]5(C)C/C=C\C4OC3CC2O1 (some centres unmarked) [PbTx-3, Brevetoxin PbTx-3] | 2–4 fold | 1–3 orders of magnitude | ~ 2 fold | 10.7 pS and 21.2 pS |  |
| C=C/C=C\CC[C@H]1O[C@H]2CC[C@@]3(C)O[C@H]4[C@@H](O)C[C@@]5(C)O[C@@H](CC/C=C(C)/C(C)=C/C=O)[C@@H](C)C[C@H]5O[C@@H]4C[C@@H]3O[C@@H]2CC[C@@]1(C)O [Brevenal] |  |  |  |  | 0.01 to 10 |
